Assay results published in ChEMBL document CHEMBL3217464, “Antimicrobial activity and mode of action of novel, N-terminal tagged tetra-peptidomimetics” (Medchemcomm, 2013).
≈ marks a conversion by molar mass, not a printed value. Calls of active or inactive are those of the source. The calls are words filed in the database; no cut-off is given here. Where a SMILES comes first, the peptide text is derived from it. [ ]: non-standard residue; d: D form. The star is where a group is joined. Benzoyl(4-(biphenyl-4-yl)) = O=C(c1ccc(-c2ccc(-c3ccccc3)cc2)cc1)*; Linoleoyl = CCCCC/C=C\C/C=C\CCCCCCCC(=O)*; NMeL = CN[C@@H](CC(C)C)C(=O)O; NMeV = CN[C@H](C(=O)O)C(C)C; X1 = Nc1ccc(/C=C/C(=O)*)cc1; Orn = NCCC[C@H](N)C(=O)O; 2Abz = Nc1ccccc1C(=O)O

Legend:
Lipid bilayer [1] = assay: Binding affinity to bacterial membrane mimic POPC/POPG (7:3 w/w) SUVs assessed as blue shift in tryptophan emission maxima at 3 uM after 2 mins by spectrofluorimeter analysis
Lipid bilayer [2] = assay: Binding affinity to mammalian membrane mimic POPC SUVs assessed as blue shift in tryptophan emission maxima at 3 uM after 2 mins by spectrofluorimeter analysis
[3] = Induction of membrane permeabilization in POPC/POPG (7:3 w/w) LUVs assessed as graded leakage of encapsulated calcein dye at 41.01 ug/ml after 5 mins by spectrofluorimeter analysis
[4] = Hemolytic activity against human erythrocytes assessed as hemoglobin release up to 500 ug/ml after 1 hr by ELISA; assay type: ADME, cell-based; details: erythrocyte
Staphylococcus aureus [5] = assay: Antibacterial activity against methicillin-resistant Staphylococcus aureus ATCC 33591 after 18 hrs by CLSI microdilution broth assay; assay type: functional; details: ATCC 33591, 18 h
Acinetobacter baumannii = assay: Antibacterial activity against Acinetobacter baumannii ATCC 19606 after 18 hrs by CLSI microdilution broth assay; assay type: functional; details: ATCC 19606, 18 h
Bacillus subtilis = assay: Antibacterial activity against Bacillus subtilis ATCC 6633 after 18 hrs by CLSI microdilution broth assay; assay type: functional; details: ATCC 6633, 18 h
Pseudomonas aeruginosa = assay: Antibacterial activity against Pseudomonas aeruginosa ATCC 25668 after 18 hrs by CLSI microdilution broth assay; assay type: functional; details: ATCC 25668, 18 h
Staphylococcus aureus [6] = assay: Antibacterial activity against Staphylococcus aureus ATCC 29213 after 18 hrs by CLSI microdilution broth assay; assay type: functional; details: ATCC 29213, 18 h
Escherichia coli = assay: Antibacterial activity against Escherichia coli ATCC 11775 after 18 hrs by CLSI microdilution broth assay; assay type: functional; details: ATCC 11775, 18 h
Staphylococcus aureus [7] = assay: Induction of membrane depolarization in methicillin-resistant Staphylococcus aureus ATCC 33591 at 12.5 ug/ml by DiSC3(5) dye by fluorimetric assay; assay type: functional
[8] = Stability of the compound assessed as compound digestion at 100 ug/ml after 24 hrs by RP-HPLC analysis in presence of proteinase-K; assay type: ADME; details: read-out: Drug degradation
[9] = Stability of the compound assessed as compound digestion at 100 ug/ml after 10 hrs by RP-HPLC analysis in presence of proteinase-K; assay type: ADME; details: read-out: Drug degradation
Aspergillus fumigatus = assay: Antifungal activity against Aspergillus fumigatus assessed as growth inhibition up to 125 ug/ml by disk diffusion method; assay type: functional, organism-based
Candida albicans = assay: Antifungal activity against Candida albicans assessed as growth inhibition up to 125 ug/ml by disk diffusion method; assay type: functional, organism-based
Staphylococcus aureus [10] = assay: Induction of morphological alterations in methicillin-resistant Staphylococcus aureus ATCC 33591 assessed as cell clustering and ruptured membrane at 5XMIC after 30 mins by scanning electron microscopy; assay type: functional, organism-based
[11] = Binding affinity to gram-negative outer membrane LPS micelles by circular dichroism spectrophotometry
Staphylococcus aureus [12] = assay: Induction of membrane depolarization in methicillin-resistant Staphylococcus aureus ATCC 33591 at 7.5 ug/ml by DiSC3(5) dye by fluorimetric assay; assay type: functional
Staphylococcus aureus [13] = assay: Induction of membrane depolarization in methicillin-resistant Staphylococcus aureus ATCC 33591 by DiSC3(5) dye by fluorimetric assay; assay type: functional, organism-based
[14] = Induction of membrane permeabilization in POPC/POPG (7:3 w/w) LUVs assessed as burst release of calcein dye at 5.68 ug/ml after 5 mins by spectrofluorimeter analysis
Lipid bilayer [15] = assay: Binding affinity to mammalian membrane mimic POPC SUVs assessed as red shift in tryptophan emission maxima at 3 uM after 2 mins by spectrofluorimeter analysis
[16] = Induction of membrane permeabilization in POPC/POPG (7:3 w/w) LUVs assessed as leakage of encapsulated calcein dye at 14.01 ug/ml after 5 mins by spectrofluorimeter analysis
[17] = Hemolytic activity against human erythrocytes assessed as hemoglobin release at 500 ug/ml after 1 hr by ELISA; assay type: ADME, cell-based, Erythrocyte; details: read-out: Activity
Staphylococcus aureus [18] = assay: Induction of morphological alterations in methicillin-resistant Staphylococcus aureus ATCC 33591 assessed as rough and damaged cell surface and formation of blebs and massive rupturing at 5XMIC after 30 mins by scanning electron microscopy; assay type: functional, organism-based
Lipid bilayer [19] = assay: Binding affinity to bacterial membrane mimic PC:PG (7:3 w/w) LUVs by circular dichroism spectrophotometry

Row | Compound | Activity (Lipid bilayer [1]) [nm] | Tryptophan emission maximum blue shift (Lipid bilayer [2]) [nm] | Activity [4] | MIC (Staphylococcus aureus [5]) [µg/mL] | MIC (Acinetobacter baumannii) [µg/mL] | MIC (Bacillus subtilis) [µg/mL] | MIC (Pseudomonas aeruginosa) [µg/mL] | MIC (Staphylococcus aureus [6]) [µg/mL] | MIC (Escherichia coli) [µg/mL] | Activity (Staphylococcus aureus [7]) [%] | Activity [14] [%] | also measured
1 | NCCC[C@H](NC(=O)c1ccccc1N)C(=O)N[C@@H](CCCN)C(=O)N[C@@H](Cc1c[nH]c2ccccc12)C(=O)N[C@@H](Cc1c[nH]c2ccccc12)C(N)=O (H-[2Abz][Orn][Orn]WW-NH2) | 5 | 1 | Non-toxic | 64 (≈ 86.9 µM) | 64 (≈ 86.9 µM) | 64 (≈ 86.9 µM) | 16 (≈ 21.7 µM) | 64 (≈ 86.9 µM) | 64 (≈ 86.9 µM) | 8.9 | – | Activity [3]: 69.9%
2 | CN[C@@H](CC(C)C)C(=O)N[C@@H](CCCN)C(=O)N[C@@H](CCCN)C(=O)N[C@@H](Cc1c[nH]c2ccccc12)C(=O)N[C@@H](Cc1c[nH]c2ccccc12)C(N)=O (H-[NMeL][Orn][Orn]WW-NH2) | 4 | 1 | Non-toxic | 256 (≈ 344 µM) | 128 (≈ 172 µM) | 64 (≈ 85.9 µM) | 128 (≈ 172 µM) | 128 (≈ 172 µM) | 64 (≈ 85.9 µM) | 18.9 | – | –
3 | CN[C@H](C(=O)N[C@@H](CCCN)C(=O)N[C@@H](CCCN)C(=O)N[C@@H](Cc1c[nH]c2ccccc12)C(=O)N[C@@H](Cc1c[nH]c2ccccc12)C(N)=O)C(C)C (H-[NMeV][Orn][Orn]WW-NH2) | 3 | 0 | Non-toxic | 256 (≈ 350 µM) | 64 (≈ 87.6 µM) | 128 (≈ 175 µM) | 128 (≈ 175 µM) | 128 (≈ 175 µM) | 256 (≈ 350 µM) | 17.2 | – | Activity [3]: 41.8%
4 | NCCC[C@H](NC(=O)[C@@H](N)CCCN)C(=O)N[C@@H](Cc1c[nH]c2ccccc12)C(=O)N[C@@H](Cc1c[nH]c2ccccc12)C(N)=O (H-[Orn][Orn]WW-NH2) | 3 | 2 | Non-toxic | – | 512 (≈ 829 µM) | 512 (≈ 829 µM) | 256 (≈ 414 µM) | 128 (≈ 207 µM) | 512 (≈ 829 µM) | 5.6 | – | –
5 | CCCCC/C=C\C/C=C\CCCCCCCC(=O)N[C@@H](CCCN)C(=O)N[C@@H](CCCN)C(=O)N[C@@H](Cc1c[nH]c2ccccc12)C(=O)N[C@@H](Cc1c[nH]c2ccccc12)C(N)=O (Linoleoyl-[Orn][Orn]WW-NH2) | 10 | 2 | Non-toxic | 4 (≈ 4.54 µM) | 2 (≈ 2.27 µM) | 4 (≈ 4.54 µM) | 2 (≈ 2.27 µM) | 2 (≈ 2.27 µM) | 2 (≈ 2.27 µM) | 100 | 72.3 | metabolised at 24 h, 100 ug/ml [8]: 36%; metabolised at 10 h, 100 ug/ml [9]: 17%; growth inhibition (GI) (Aspergillus fumigatus): inactive; growth inhibition (GI) (Candida albicans): inactive; Activity (Staphylococcus aureus [10]): Active; Activity [11]: Active; Activity (Staphylococcus aureus [12]): 84%; Activity (Staphylococcus aureus [13]): Dose-dependent effect
6 | NCCC[C@H](NC(=O)/C=C/c1ccc(N)cc1)C(=O)N[C@@H](CCCN)C(=O)N[C@@H](Cc1c[nH]c2ccccc12)C(=O)N[C@@H](Cc1c[nH]c2ccccc12)C(N)=O (X1-[Orn][Orn]WW-NH2) | 2 | – | Non-toxic | 128 (≈ 168 µM) | 64 (≈ 83.9 µM) | 32 (≈ 41.9 µM) | 16 (≈ 21 µM) | 64 (≈ 83.9 µM) | 32 (≈ 41.9 µM) | 16.8 | 58.5 | Activity (Lipid bilayer [15]): 2 nm; Activity [16]: 68.3%
7 | NCCC[C@H](NC(=O)c1ccc(-c2ccc(-c3ccccc3)cc2)cc1)C(=O)N[C@@H](CCCN)C(=O)N[C@@H](Cc1c[nH]c2ccccc12)C(=O)N[C@@H](Cc1c[nH]c2ccccc12)C(N)=O ({Benzoyl(4-(biphenyl-4-yl))}-[Orn][Orn]WW-NH2) | 30 | 2 | – | 8 (≈ 9.15 µM) | 2 (≈ 2.29 µM) | 2 (≈ 2.29 µM) | 4 (≈ 4.58 µM) | 2 (≈ 2.29 µM) | 2 (≈ 2.29 µM) | – | 76.4 | metabolised at 10 h, 100 ug/ml [9]: 14%; hemolysis at 1 h, 500 ug/ml [17]: 50%; growth inhibition (GI) (Aspergillus fumigatus): inactive; growth inhibition (GI) (Candida albicans): inactive; Activity (Staphylococcus aureus [18]): Active; Activity (Lipid bilayer [19]): Active; Activity (Staphylococcus aureus [12]): 81%; Activity (Staphylococcus aureus [13]): Dose-dependent effect
8 | CN(C)[C@@H]1C(O)=C(C(N)=O)C(=O)[C@@]2(O)C(O)=C3C(=O)c4c(O)cccc4[C@@](C)(O)[C@H]3C[C@@H]12 [TETRACYCLINE] | – | – | – | > 50 | – | – | 0.3 (≈ 0.675 µM) | 0.3 (≈ 0.675 µM) | 0.3 (≈ 0.675 µM) | – | – | –
